Reference: EP0256472A2, “Cosmetic agent for application to skin” (priority 1986, dated 1988)

Legend:
[1] = Colour tone of the skin of colored guinea pigs, color-difference meter (Example 10); type: in vivo, guinea pig; settings: cream with 0.5% of active principle, twice a day for 14 days; larger value = whiter skin
Method: After hair had been removed from the back of each colored guinea pig (3 guinea pigs in a group), a cream with which 0.5% of an active principle was mixed (cGMP or its derivatives in place of FAD 2Na used in Example 2) and a cream containing no active principle were respectively applied to the back of each guinea pig twice a day (in the morning and at night) every day for 14 days. The difference in colour tone of the skin before and after the application was measured by a color-difference meter.
The numerical values shown in the table are L-values (lightness) and a larger value indicates a whiter skin.

[2] = Half face use test of cosmetic agents on women: elasticity, complexion, roughness, wrinkling of the skin; type: in vivo, human; settings: Example 9: toilet water as in Example 7 with this compound in place of N²,O^2ʹ-DBcGMP Na
Excerpt: Two groups each of which comprised 20 statistically-equivalent women (30 to 50 years old) were selected and the toilet water samples I and II were applied separately to the right and left face portions, respectively, of each woman in one group and the toilet water samples I and III were respectively applied to same portions of each woman in the other group by a half face method twice a day (in the morning and at night) for 3 months. The degree of improvement in terms of elasticity, complexion, roughness, and wrinkling of the skin were then examined. […]
The effectiveness of thus-prepared toilet waters was actually measured by the same method as set forth in Example 1.
The toilet water samples of the present invention and of the comparison were applied separately to the right and left face portions, respectively, of each woman in a group comprising 20 women (30 to 50 years old) by a half face method twice a day (in the morning and at night) for 3 months. The degree of improvement in terms of elasticity, complexion, roughness, and wrinkles of the skin was then examined. […]

[3] = Lightness of discolored spot or freckled portion of human skin, color-difference meter (Example 11); type: in vivo; settings: Example 12: cream as in Example 11 with this compound instead of N²,O^2ʹ-DBcGMP Na and cGMP Na
Method: Creams having the compositions shown in Table 23 were prepared and then applied to a discolored spot or freckled portion of the skin of each of 6 men and women in the morning and at night twice a day for 3 months. The lightness of the discolored spot portions was measured by a color-difference meter before and after the application.
The numerical values obtained before and after the application shown in the table are L-values (lightness).

[4] = Safety tests in the same way as in Example 1 (acute toxicity, skin irritation, skin sensitization); type: in vivo
Excerpt: The above-described coenzymes and nucleic acid related substances used in the present invention are widely present in organisms and are thus thought to be extremely safe.

[5] = rabbit, in vivo
Acute oral toxicity = type: in vivo; settings: rat
[6] = guinea pig, in vivo
collagen = assay: Promotion of collagen production in skin-excised rats: weight of granulation and hydroxyproline (Test Example 2); type: in vivo, Wistar 6-week old male rats; settings: for increases in the weights of regenerated granulation and the amounts of hydroxyproline (in words): summary of Table 3
Method: The action of promoting the production of collagen by the coenzymes and the nucleic acid related substances used in the present invention was evaluated in accordance with the following method:
Each rat was killed on the seventh day, and then the circular portion was cut out and the weight of granulation (derma) and the amount of hydroxyproline, which is a specific amino acid constituting collagen, were measured as an index of the amount of reproduced collagen.

[7] = guinea pig, in vivo; remark: listed apart in the source
[8] = guinea pig, in vivo; remark: listed apart in the source
[9] = system: Fibroblasts originating in the human skin; assay: Promotion of growth of dermal fibroblasts (Test Example 1); type: cell-based; settings: 10⁻⁵ M, 1% serum, 14 days; words of the text only, Table 2 is an image
Method: The action of promoting the growth of dermal fibroblasts by the coenzymes and nucleic acid related substances used in the present invention was evaluated in accordance with the following method:
Fibroblasts originating in the human skin were cultured in media to which the above-described compounds had been added and to which no such compound was added under serum controlled conditions and the effect of the compounds on proliferation was examined. That is, the above-described fibroblasts were cultured in a Co₂-incubator at 37°C for 24 hours in Eagle's MEM medium (pH 7.6) to which were added 10% of fetal bovine serum and the like. The medium was then changed to a medium in which the serum was lowered 1% and in which the fibroblasts were then cultured for 24 hours. The medium was then changed into a medium containing 10⁻⁵ M of a substance for examination and 1% of serum in which the culture was continued.
The medium was then changed on alternate days. The results obtained are shown in Table 2 in which the number of cells for each case is shown by a relative value obtained by assuming the number of cells after 14 days to be 100 in the case of the control in which no substance for examination was added.

collagen elastin fibril = assay: Tensile strength of healed linear skin cut in rats (Test Example 3); type: in vivo, Wistar 6-week old male rats; settings: for increases in the tensile strength of collagen elastin fibril (in words): summary of Table 4
Method: The effect of the coenzymes and the nucleic acid related substances against the strength of collagen elastin fibril was conducted as follows:
After hair had been removed from the back of each rat in a group comprising eight Wistar 6-week old male rats, the back of the rat was cut along the median line of the back by a scalpel to make a linear cut portion having a length of 4 cm, and the cut portion was sewed up at 3 positions at equally spaced intervals by Michel's clips. The Michel's clips were removed 3 days after the sewing. 0.1 ml of each of physiological saline containing 50 mM of the above described compound or a physiological saline containing no compound (control) was repeatedly applied to the cut portion once a day for 7 days. Each rat was killed on the eighth day, and the skin of the cut portion was cut out to prepare three samples per rat, each sample being a strip of skin having a width of 1 cm crossing the cutting line.
The tensile strength of the sample up to breakage point was measured by a tensiometer to determine the strength of reproduced collagen elastin fibril. In the Table, values of the strength are shown as relative values obtained on the assumption that those of the control were 100.
In the above test, a relative value of the strength of more than 110 is considered to show an increase in the tensile strength.

[10] = guinea pig, in vivo; remark: listed apart in the source
[11] = in vivo
[12] = tested in the same way as in Example 1
[13] = relative value, control = 100, 0.1 ml of 50 mM in 10% ethanol twice a day for 6 days, seventh day

Nc1nc2c(ncn2[C@@H]2O[C@@H]3COP(=O)(O)O[C@H]3[C@H]2OC(=O)CCC(=O)O)c(=O)[nH]1 [O^2'-MScGMP Na]
L-values (lightness) After application [1]: 43.8

CCCC(=O)Nc1nc2c(ncn2[C@@H]2O[C@@H]3COP(=O)(O)O[C@H]3[C@H]2O)c(=O)[nH]1 [N^2-MBcGMP Na]
L-values (lightness) After application [1]: 44.6 | effect of preventing the aging of the skin [2]: excellent effects similar to those of Example 7 | properties of the creams (lightness of discolored spots) [3]: results similar to those in Example 11

NC(=O)c1ccc[n+]([C@@H]2O[C@H](COP(=O)([O-])OP(=O)(O)OC[C@H]3O[C@@H](n4cnc5c(N)ncnc54)[C@H](OP(=O)(O)O)[C@@H]3O)[C@@H](O)[C@H]2O)c1 [NADP Na, β-nicotinamide adenine dinucleotide phosphate]
safety with respect to skin irritation, etc. [4, 12]: no problem was observed

NC(=O)c1ccc[n+]([C@@H]2O[C@H](COP(=O)([O-])OP(=O)(O)OC[C@H]3O[C@@H](n4cnc5c(N)ncnc54)[C@H](O)[C@@H]3O)[C@@H](O)[C@H]2O)c1 [NAD Na, β-nicotinamide adenine dinucleotide]
safety with respect to skin irritation, etc. [4, 12]: no problem was observed

Cc1cc2nc3c(=O)[nH]c(=O)nc-3n(C[C@H](O)[C@H](O)[C@H](O)COP(=O)(O)OP(=O)(O)OC[C@H]3O[C@@H](n4cnc5c(N)ncnc54)[C@H](O)[C@@H]3O)c2cc1C [FAD 2Na, Flavin adenine dinucleotide]
safety with respect to skin irritation, etc. [4, 12]: no problem was observed

O=C(O)CCC(=O)Nc1nc2c(ncn2[C@@H]2O[C@@H]3COP(=O)(O)O[C@H]3[C@H]2O)c(=O)[nH]1 [N^2-MScGMP Na]
L-values (lightness) After application [1]: 44.6

O=C(O)CCC(=O)Nc1nc2c(ncn2[C@@H]2O[C@@H]3COP(=O)(O)O[C@H]3[C@H]2OC(=O)CCC(=O)O)c(=O)[nH]1 [N^2,O^2'-DScGMP Na]
L-values (lightness) After application [1]: 45.3 | effect of preventing the aging of the skin [2]: excellent effects similar to those of Example 7

Nc1nc2c(ncn2[C@@H]2O[C@@H]3COP(=O)(O)O[C@H]3[C@H]2O)c(=O)[nH]1 [cGMP Na, guanosine 3ʹ,5ʹ-cyclic monophosphate]
safety with respect to skin irritation, etc. [4, 12]: no problem | L-values (lightness) After application [1]: 43.0

Nc1nc2c(nc(Sc3ccc(Cl)cc3)n2[C@@H]2O[C@@H]3COP(=O)(O)O[C@H]3[C@H]2O)c(=O)[nH]1 [8-ClPhScGMP Na]
L-values (lightness) After application [1]: 45.3

CCCC(=O)OC1C2OP(=O)(O)OCC2OC1n1cnc2c(=O)[nH]c(N)nc21 (stereo not drawn) [O^2'-MBcGMP Na]
L-values (lightness) After application [1]: 43.7 | effect of preventing the aging of the skin [2]: excellent effects similar to those of Example 7 | properties of the creams (lightness of discolored spots) [3]: results similar to those in Example 11

5ʹ-deoxyadenosylcobalamine [CoB12]
Ocular-mucous membrane irritation [5]: 5%, non-irritant | LD50 value (Acute oral toxicity): LD50 value; 5 g/kg or more | Phototoxicity [6]: negative | Amount of hydroxyproline (collagen; [13]): 167 | Weight of granulation (collagen; [13]): 181 | increases in the weights of regenerated granulation and the amounts of hydroxyproline (in words) (collagen): particularly excellent effects | Skin sensitization [7]: negative | Photosensitization [8]: negative | growth promotion functions for human fibroblasts [9]: particularly excellent effects | Tensile strength (collagen elastin fibril; relative value, control = 100, more than 110 is considered an increase, 0.1 ml of 50 mM in physiological saline once a day for 7 days, eighth day): 122 | increases in the tensile strength of collagen elastin fibril (in words) (collagen elastin fibril): particularly excellent effect | Primary skin irritation [10]: 5%; non-irritant | Human patch test [11]: 5%; non-irritant

CC(C)(COP(=O)(O)OP(=O)(O)OC[C@H]1O[C@@H](n2cnc3c(N)ncnc32)[C@H](O)[C@@H]1OP(=O)(O)O)[C@@H](O)C(=O)NCCC(=O)NCCS [CoA 3Na, coenzyme A]
safety with respect to skin irritation, etc. ([4]; in vivo): no problem was observed | increases in the weights of regenerated granulation and the amounts of hydroxyproline (in words) (collagen): particularly excellent effects | growth promotion functions for human fibroblasts [9]: particularly excellent effects | increases in the tensile strength of collagen elastin fibril (in words) (collagen elastin fibril): particularly excellent effect

O=C(O)c1cc(C(=O)O)c2c(n1)C(=O)C(=O)c1cc(C(=O)O)[nH]c1-2 [PQQ 2Na, Pyrrolo-quinoline quinone]
safety with respect to skin irritation, etc. ([4]; in vivo): no problem was observed

CCCC(=O)Nc1nc2c(ncn2[C@@H]2O[C@@H]3COP(=O)(O)O[C@H]3[C@H]2OC(=O)CCC)c(=O)[nH]1 [N^2,O^2'-DBcGMP Na]
safety with respect to skin irritation, etc. [4, 12]: problems such as skin irritating property were not found | L-values (lightness) After application [1]: 45.5

Nc1nc2c(nc(Br)n2[C@@H]2O[C@@H]3COP(=O)(O)O[C@H]3[C@H]2O)c(=O)[nH]1 [8-BrcGMP Na]
L-values (lightness) After application [1]: 45.4 | effect of preventing the aging of the skin [2]: excellent effects similar to those of Example 7 | properties of the creams (lightness of discolored spots) [3]: results similar to those in Example 11
